These are literature values, as cited in paper PMC3499999, “Advances in the Treatment of Malaria” (Mediterranean Journal of Hematology and Infectious Diseases, 2012).

In data set [1] the test system is severe malaria. The settings on record: artesunate versus quinine, systematic reviews, regardless of age and geographic differences.
On the set-up of data set [2]: method as in PMID 22540954.
Data set [3] concerns severe malaria. On the set-up: method as in PMID 19059639. The settings on record: rectal, over placebo, p=0.0013.
The subject of data set [4] is P. falciparum. On the set-up: method as in earlier work. The settings on record: 3-days course.
Details of data set [5]: method as in PMID 20863871. The settings on record: animals, only for long drug exposure; artemether and arteether intramuscularly, artelinic acid orally.
Details of data set [6]: method as in PMID 10661809. Conditions: high intramuscular doses, oil-based, beagle dogs.
Experiment in data set [7]: not given
This is another data set of the same source.

The conditions of data set [8]: in vivo.
Details of data set [9]: method as in PMID 17461742.

A word on the half-life: it is the time needed for the level to fall by half in the phase considered. Regarding `C[C@H]1[C@H](OC(=O)CCC(=O)O)O[C@@H]2O[C@@]3(C)CC[C@H]4[C@H](C)CC[C@@H]1[C@@]24OO3` [artesunate], the half-life was below 1 h. Also, the “case fatality rate, RR” value in data set [1] is given as 0.71. Also, the “median elimination T ½” value in data set [2] is 0.25 [0.11 – 1.82] hours. The “death or permanent disability, RR” value in data set [3] is 0.49.

For the compound `C[C@@H]1CC[C@H]2[C@@H](C)C(=O)O[C@@H]3O[C@@]4(C)CC[C@@H]1[C@]32OO4` [artemisinin], the “reduction of parasite burden” value in data set [4] is listed as 90%.

Turning to `CCO[C@H]1O[C@@H]2O[C@@]3(C)CC[C@H]4[C@H](C)CC[C@@H]([C@H]1C)[C@@]24OO3` [arteether], in data set [5], the neurotoxicity result was “Fatal neurotoxicity”. In data set [6], the QTc prolongation entry is on record as “reported at significant level”.

Take `COc1cc(NC(C)CCCN)c2ncccc2c1` (stereo not drawn) [primaquine]: the main safety concern result in [7] (patients with glucose-6-phosphate dehydrogenase deficiency) was “risk of severe intravascular haemolysis”.

`C[C@H]1[C@@H](OCc2ccc(C(=O)O)cc2)O[C@@H]2O[C@@]3(C)CC[C@H]4[C@H](C)CC[C@@H]1[C@@]24OO3` [artelinic acid]: the neurotoxicity entry in data set [5] is reported as “Fatal neurotoxicity”.

For the compound Atovaquone-proguanil, the “risk of birth defects relative to the general population” value in [8] is listed as at most 3 times.

Regarding `COc1cc(C)c2c(Oc3cccc(C(F)(F)F)c3)c(OC)cc(NC(C)CCCN)c2n1` (stereo not drawn) [tefenoquine, tafenoquine], the “half-life compared with primaquine” value in data set [9] is “longer half-life”.

As to `COc1cc(NC(C)CCCN/C(C)=C2\CCOC2=O)c2ncccc2c1` (stereo not drawn) [buloquine], in data set [7], the “oxidative toxicity compared with primaquine” value was “less oxidative toxicity”.

For the compound `CO[C@H]1O[C@@H]2O[C@@]3(C)CC[C@H]4[C@H](C)CC[C@@H]([C@H]1C)[C@@]24OO3` [artemether], the half-life was 2 to 4 h. Besides, the neurotoxicity entry in data set [5] is “Fatal neurotoxicity”. The QTc prolongation entry in data set [6] is given as “reported at significant level”.
